Consider one molecule from publication PMC8589421, “Impact of Type II LRRK2 inhibitors on signaling and mitophagy” (Biochemical Journal, 2021).

Like-named read-outs stand apart in the source and are kept apart here.

One may read the IC50 as the concentration that inhibits the measured activity by half.

The target in one test is T1, Flag-LRRK2[G2019S] (Homo sapiens, UniProt Q5S007, G2019S).
T1 construct: towards full length wild type and G2019S pathogenic LRRK2 mutant in a biochemical assay; Flag (N); purchased ThermoFisher Scientific A15201
T1 sequence (Q5S007 whole entry G2019S): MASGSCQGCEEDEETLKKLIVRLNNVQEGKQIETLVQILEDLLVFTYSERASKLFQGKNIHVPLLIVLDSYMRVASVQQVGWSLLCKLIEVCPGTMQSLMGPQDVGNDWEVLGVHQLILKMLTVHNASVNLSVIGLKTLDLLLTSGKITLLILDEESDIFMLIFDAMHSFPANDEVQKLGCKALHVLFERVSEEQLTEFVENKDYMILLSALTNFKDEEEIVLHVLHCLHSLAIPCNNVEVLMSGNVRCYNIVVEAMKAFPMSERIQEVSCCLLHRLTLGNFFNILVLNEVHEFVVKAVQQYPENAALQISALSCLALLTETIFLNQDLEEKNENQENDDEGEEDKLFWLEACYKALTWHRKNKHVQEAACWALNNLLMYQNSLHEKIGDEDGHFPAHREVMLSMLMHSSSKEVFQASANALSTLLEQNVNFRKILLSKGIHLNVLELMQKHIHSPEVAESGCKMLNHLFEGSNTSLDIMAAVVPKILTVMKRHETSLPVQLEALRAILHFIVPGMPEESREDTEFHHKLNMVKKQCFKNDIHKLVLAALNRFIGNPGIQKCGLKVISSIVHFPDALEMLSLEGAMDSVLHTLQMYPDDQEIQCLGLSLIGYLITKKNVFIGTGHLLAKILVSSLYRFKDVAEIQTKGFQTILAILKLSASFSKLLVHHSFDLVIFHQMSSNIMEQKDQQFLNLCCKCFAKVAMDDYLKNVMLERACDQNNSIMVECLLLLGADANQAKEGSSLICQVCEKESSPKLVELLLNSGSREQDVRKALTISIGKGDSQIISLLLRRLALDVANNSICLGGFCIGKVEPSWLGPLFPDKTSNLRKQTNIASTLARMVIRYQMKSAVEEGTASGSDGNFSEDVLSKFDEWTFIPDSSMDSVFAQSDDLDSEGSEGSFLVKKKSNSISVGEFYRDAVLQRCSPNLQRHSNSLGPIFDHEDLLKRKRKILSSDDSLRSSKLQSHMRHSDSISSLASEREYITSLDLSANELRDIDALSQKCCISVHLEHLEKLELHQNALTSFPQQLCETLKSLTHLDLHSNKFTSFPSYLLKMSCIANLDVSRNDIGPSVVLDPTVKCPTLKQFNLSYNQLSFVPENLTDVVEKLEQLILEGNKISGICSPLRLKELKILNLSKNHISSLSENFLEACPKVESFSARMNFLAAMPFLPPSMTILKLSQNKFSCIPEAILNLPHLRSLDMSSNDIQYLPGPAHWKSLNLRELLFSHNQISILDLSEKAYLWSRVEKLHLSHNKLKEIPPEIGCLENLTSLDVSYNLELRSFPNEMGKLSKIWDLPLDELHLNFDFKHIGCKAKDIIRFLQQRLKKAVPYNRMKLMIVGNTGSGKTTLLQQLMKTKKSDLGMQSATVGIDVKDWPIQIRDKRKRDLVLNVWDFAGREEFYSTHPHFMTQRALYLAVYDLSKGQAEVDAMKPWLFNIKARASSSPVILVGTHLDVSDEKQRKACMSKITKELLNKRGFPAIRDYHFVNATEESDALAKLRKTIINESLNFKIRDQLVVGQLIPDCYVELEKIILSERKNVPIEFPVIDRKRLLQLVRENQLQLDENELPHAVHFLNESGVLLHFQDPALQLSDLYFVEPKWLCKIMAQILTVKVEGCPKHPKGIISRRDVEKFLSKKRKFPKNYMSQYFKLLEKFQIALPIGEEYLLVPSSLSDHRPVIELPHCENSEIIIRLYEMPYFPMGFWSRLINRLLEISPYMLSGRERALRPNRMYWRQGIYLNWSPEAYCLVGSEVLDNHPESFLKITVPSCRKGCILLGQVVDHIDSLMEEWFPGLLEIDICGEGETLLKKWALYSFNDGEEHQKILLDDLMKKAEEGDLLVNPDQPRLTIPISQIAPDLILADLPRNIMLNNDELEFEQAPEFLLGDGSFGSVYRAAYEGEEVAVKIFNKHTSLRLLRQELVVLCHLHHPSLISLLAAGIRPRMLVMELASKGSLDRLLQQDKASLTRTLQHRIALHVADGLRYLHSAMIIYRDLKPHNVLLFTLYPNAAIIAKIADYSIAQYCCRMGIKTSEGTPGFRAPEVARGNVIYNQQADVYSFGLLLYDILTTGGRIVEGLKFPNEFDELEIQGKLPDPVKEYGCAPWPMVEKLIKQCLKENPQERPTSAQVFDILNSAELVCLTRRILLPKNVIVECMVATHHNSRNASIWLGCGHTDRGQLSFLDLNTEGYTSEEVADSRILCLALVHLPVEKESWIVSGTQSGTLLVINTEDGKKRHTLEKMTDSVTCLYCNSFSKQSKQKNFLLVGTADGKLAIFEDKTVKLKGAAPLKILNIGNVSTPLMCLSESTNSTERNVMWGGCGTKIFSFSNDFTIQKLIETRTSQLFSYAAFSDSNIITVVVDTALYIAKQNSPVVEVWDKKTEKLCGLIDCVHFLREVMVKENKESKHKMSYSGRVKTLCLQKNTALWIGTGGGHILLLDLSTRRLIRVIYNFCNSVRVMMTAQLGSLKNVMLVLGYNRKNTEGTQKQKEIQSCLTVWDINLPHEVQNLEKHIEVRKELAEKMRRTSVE
In words: IC50 LRRK2 Nictide assay, G2019S. The class given is biochemical. The following applies: IC50 LRRK2 G2019S (100 µM ATP), Nictide peptide substrate, value ± SD.

For test [1], the system named is Rab10 pThr73, LRRK2 [G2019S]. In words: Rab10 Thr73 phospho-immunoblot in LRRK2[G2019S] knock-in MEFs. The class given is cell-based, mouse. Particulars: LRRK2[G2019S] knock-in MEFs, 2 h, read-out: LRRK2 [G2019S] Rab10 pThr73 IC50. On the procedure: (§1) Wild-type and homozygous LRRK2 [R1441C] (Jax, stock number: 009346), LRRK2[G2019S] Taconic, (model 13940) and LRRK2 [A2016T] (Jax, stock number: 021828)[7] knock-in MEF cells were isolated from littermate-matched mouse embryos on a C57BL/6J background at day E12.5 as described previously. MEFs were grown in Dulbecco's modified Eagle medium (DMEM GIBCO, #11960-085) containing 10% (by vol) fetal bovine serum (FBS), 2 mM L-glutamine, 100 U/ml penicillin, and […] streptomycin supplemented with non-essential amino acids and 1 mM sodium pyruvate. Human embryonic kidney 293 (HEK293) (#ATCC CRL-1573) and HeLa (#ATCC CCL-2) cells were purchased from American Tissue Culture Collection (ATCC) and cultured in DMEM containing 10% (by vol) FBS, 2 mM L-glutamine, 100 U/ml penicillin, and […] streptomycin. All cells were grown at 37°C, 5% (by vol) CO2 in a humidified atmosphere and regularly tested for mycoplasma contamination.
Inhibitors were dissolved in dimethyl sulfoxide (DMSO) (Sigma, #D2650). The inhibitors were diluted 1000× into cell medium. The equivalent volume of DMSO was added to the minus inhibitor controls. Experiments were performed in six-well plates, 10 cm dishes or 15 cm dishes depending on the amount of cell extract required.
Cells were lysed in an ice-cold lysis buffer containing 50 mM Tris–HCl, pH 7.4, 1% (by vol) Triton X-100, 10% (by vol) glycerol, 150 mM NaCl, 1 mM sodium orthovanadate, 50 mM NaF, 10 mM 2-glycerophosphate, 5 mM sodium pyrophosphate, 1 µg/ml microcystin-LR, and cOmplete EDTA-free protease inhibitor cocktail (Roche, #11836170001). Lysates were incubated on ice for 30 min and clarified by centrifugation at 20 800×g at 4°C for 20 min. Supernatants were quantified by Bradford assay (Bio-Rad Protein Assay Dye Reagent Concentrate #5000006) and samples prepared in 1× lithium dodecyl sulfate sample buffer final concentration (NuPage LDS Sample buffer 4× Invitrogen, #NP0008). When not deployed immediately, lysates were snap-frozen in liquid nitrogen and stored at −80°C until use. […]

For test [2], the system named is LRRK2 Ser935 phosphorylation, LRRK2[G2019S]. In words: LRRK2 Ser935 phospho-immunoblot in LRRK2[G2019S] knock-in MEFs. The test is classed as cell-based, mouse. Particulars: Figure 4B. On the procedure: as §1, with “All cells were grown at 37°C, 5% (by vol) CO2 in a humidified atmosphere and regularly tested for mycoplasma contamination.” left out
Cells were lysed in an ice-cold lysis buffer containing 50 mM Tris–HCl, pH 7.4, 1% (by vol) Triton X-100, 10% (by vol) glycerol, 150 mM NaCl, 1 mM sodium orthovanadate, 50 mM NaF, 10 mM 2-glycerophosphate, 5 mM sodium pyrophosphate, 1 µg/ml microcystin-LR, and cOmplete EDTA-free protease inhibitor cocktail (Roche, #11836170001). […] Supernatants were quantified by Bradford assay (Bio-Rad Protein Assay Dye Reagent Concentrate #5000006) and samples prepared in 1× lithium dodecyl sulfate sample buffer final concentration (NuPage LDS Sample buffer 4× Invitrogen, #NP0008). […]
(In western blotting, separated proteins are transferred to a membrane and probed.)

With `Cc1ccc(C(=O)Nc2ccc(CN3CCN(C)CC3)c(C(F)(F)F)c2)cc1C#Cc1cnc2[nH]ncc2c1` [GZD-824], the IC50 at Flag-LRRK2[G2019S] came out at 80 nM; in test [1] it was 233 nM; in test [1] (Mus musculus), 233 nM. The “effect on Ser935 phosphorylation in LRRK2[G2019S] cells” value in test [2] is “did not impact Ser935 phosphorylation”.
